# In PMC7156724, “Potent BRD4 inhibitor suppresses cancer cell-macrophage interaction” (Nature Communications, 2020):
# “And” between values parts separate entries of the source, which are not always exact repeats. Equal entries are not always repeated.
# B1: MCSF-1 (protein, UniProt P09603 33-554, looked up)
# Macrophage colony-stimulating …: EEVSEYCSHMIGSGHLQSLQRLIDSQMETSCQITFEFVDQEQLKDPVCYLKKAFLLVQDIMEDTMRFRDNTPNAIAIVQLQELSLRLKSCFTKDYEEHDKACVRTFYETPLQLLEKVKNVFNETKNLLDKDWNIFSKNCNNSFAECSSQDVVTKPDCNCLYPKAIPSSDPASVSPHQPLAPSMAPVAGLTWEDSEGTEGSSLLPGEQPLHTVDPGSAKQRPPRSTCQSFEPPETPVVKDSTIGGSPQPRPSVGAFNPGMEDILDSAMGTNWVPEEASGEASEIPVPQGTELSPSRPGGGSMQTEPARPSNFLSASSPLPASAKGQQPADVTGTALPRVGPVRPTGQDWNHTPQKTDHPSALLRDPPEPGSPRISSLRPQGLSNPSTLSAQPQLSRSHSSGSVLPLGELEGRRSTRDRRSPAEPEGGPASEGAARPLPRFNSVPLTDTGHERQSEGSFSPQLQESVFHLLVPSVILVLLAVGGLLFYRWRRRSHQEPQRADSPLEQPEGSPLTQDDRQVELPV
# Experiments:
# [1] = system: human melanoma patient-derived xenograft (PDX); experiment: Human melanoma patient-derived xenograft (PDX) tumor growth; assay type: in vivo, NSG mice; details: Fig.3f, 1.5mg/kg, individual animals, in mm³ (unit assumed)
# Excerpt: PO, oral administration; QD, once daily; BID, twice daily. b–d Tumor growth curves for A2780 ovarian tumor (n = 5) (b), TMD8 large B cell lymphoma (n = 6) (c), and B16F10 melanoma (n = 5) (d) bearing mice treated with the indicated compounds once daily for 11-21 days. e, f Tumor growth curves for A375 melanoma (n = 6) (e), and patient-derived xenograft (PDX) of melanoma (n = 5) (f) bearing mice treated with the indicated compounds once daily (5 days on, 2 days off) for 21 days. For d–f, NHWD-870 used is NHWD-870-HCl synthesized using Suzuki coupling route. Data are presented as mean ± SEM in (a, b, d, f) and mean + SEM in (c, e). p values were calculated using two-tailed, unpaired t tests. *p < 0.05; **p < 0.01; ***p < 0.001. Source data are provided as a Source Data file.
# 4–6 weeks old female BALB/c nude mice were used for most experiments, with the exception of 6–8 weeks old female C57BL/6 mice were used for B16F10 experiments, and 6–8 weeks old male BALB/c nude mice and SD rats were used for pharmacokinetic experiments. All animals were purchased from Shanghai SIPPR-Bk Lab Animal Co., Ltd. All animals were housed under a regimen of 12 h light/12 h dark cycles and specific pathogen-free conditions. 5×10^6 NCI-H526, ES-2, MDA-MB231, A2780, A375, B16F10, and TMD-8 cells (0.1 ml) were injected subcutaneously into female nude mice. The melanoma patient-derived xenograft model was derived from a human melanoma sample (BRAF, NARS and NF1 wild type, and p53 mutant) removed from a patient in Xiangya Hospital. Surgically removed tumor fragments were implanted subcutaneously into female NSG mice. When the tumors grew to ~1000 mm^3, they were harvested and cryopreserved or immediately re-implanted for expansion or experiments. Mouse body weight and tumor sizes were measured every 3 days. Once the tumors grew to 150–200 mm^3, mice were treated with the compounds as described in the Figures. 1 × 10^6 A2780 cells (1 ml) were injected into the abdominal cavity of nude mice. Ascitic volume and tumor weight were measured by an electronic balance. All the procedures were evaluated and approved by the Institutional Animal Care and Use Committee of Central South University and Yale University.
# A375 melanoma cells = experiment: AlamarBlue assay, A375; assay type: cell-based, human; details: for Cellular activity in melanoma cells (A375), alamarBlue: Fig.1g, replicates
# Protocol: 3. AlamarBlue assay. AlamarBlue was made by resazurin sodium salt (Sigma, Cat
# # 199303) dissolved in PBS.
# NCI-H211, MDA-MB231 and A375 cells were plated in 96-well plates at approximately 30% confluence and left overnight to adhere. In the following day, […]
# of treatment, 10 μl AlamarBlue reagent (0.3 mg/ml) was added to each well, and after 18h, the florescence intensity in each well was measured using a top-reading fluorescent plate reader with excitation at 530 nm and emission at 590 nm. […]
# HIF1 reporter activity = experiment: HIF1 luciferase reporter assay; assay type: cell-based, human; details: A2780 and A375 cells, 20% or 1% O2, 24 h
# Protocol: Fig. 7 NHWD-870 inhibited CSF1 expression through suppressing BRD4 and HIF1α in tumor cells. a, b Representative western blot analysis of control (Ctrl) and BRD4 knockout (KO) A375 and A2780 cells exposed to 20% or 1% O2 for 24 hours. Selected from three independent experiments. c, d Representative western blot analysis of A375 and A2780 cells treated with DMSO or 25 nM NHWD-870 and exposed to 20% or 1% O2 for 24 h. Selected from three independent experiments. e Relative HIF1 luciferase reporter activity in control (Ctrl), BRD4 knockout (KO), or NHWD-870 treated A375 and A2780 cells exposed to 20% or 1% O2 for 24 h. Data are presented as mean ± SEM from three independent experiments. f RT-qPCR analyses of CSF1 in control (Ctrl), BRD4 knockout (KO), or NHWD-870 treated A375 and A2780 cells exposed to 20% or 1% O2 for 24 hours. Data are presented as mean ± SEM from three independent experiments. g RT-qPCR analyses of HIF1A in A375 or A2780 cells treated with 15 nM NHWD-870 or DMSO control for 24 h. Data are presented as mean ± SEM from three independent experiments. h Genome browser view of BRD4 ChIP-seq peaks on the HIF1A promoter. Shown are BRD4 ChIP and input control of A375 cells (top panel) and BRD4 ChIP of MDA-MB231 cells treated with DMSO or JQ-1 (bottom panel). i BRD4 ChIP-qPCR analyses of the HIF1A promoter in A2780 cells treated with DMSO or NHWD-870 for 72 h. Data are presented as mean ± SEM from three independent experiments. j RT-qPCR analyses of CSF1 in A375 and A2780 cells were transiently transduced with HIF1α, then exposed to 1% O2 for 24 h. Ctrl, Control. Data are presented as mean ± SEM from three independent experiments. k A model showing the effects of NHWD-870 on cancer cell-TAM interaction. NHWD-870 inhibits the proliferation and survival of TAMs partly by inhibiting BRD4 activity, HIF1α expression, and CSF1 secretion by tumor cells, and downregulating CSF1R mediated ERK and PI3K/AKT signaling in TAMs. p values were calculated using two-tailed, unpaired t tests in this figure. *p < 0.05; **p < 0.01; ***p < 0.001. Source data are provided as a Source Data file.
# Supplementary Figure 15. […]
# Data in (a) and (c-e) are presented as mean ± SEM from 3 independent experiments. p values were calculated using two-tailed, unpaired t tests. **, p<0.01; ***, p<0.001. Source data are provided as a Source […]
# All patients had […]
# undergone complete cytoreductive surgery.
# 14. Immunohistochemical staining. Paraffin-embedded implantation samples isolated from peritoneal metastasis of EOC patients (128 cases) were sectioned at a thickness of 4μm. To stain CD68, CSF1 and p-BRD4, the slides were first deparaffinized in xylene and rehydrated with gradient concentrations of alcohol under standard procedures. After rehydration, the slides were immersed in 0.01 mol/L citrate buffer (pH 6.0) and heated (95°C) for 15 min for antigen retrieval.
# Then, the samples were incubated with 3% hydrogen peroxide (H2O2) for 10 minutes followed by 10% normal goat serum blocking for 10 minutes. Subsequently, the sections were incubated with rabbit polyclonal anti-human CD68 antibody (dilution 1:100) (sc-20060, Santa Cruz Biotechnology) and anti-human p-BRD4
# TAMs = experiment: Transwell co-culture of pretreated A2780 cells and TAMs with CSF1 or anti-CSF1R antibodies; assay type: cell-based, mouse; details: co-culture with pretreated A2780 cells, MCSF-1 10ng/ml where added
# Protocol: Fig. 6 CSF1/CSF1R signaling is critical for the tumor inhibitory effects of NHWD-870 and CSF1 induced ovarian cancer growth depends on macrophages. a Number of TAMs after treatment with the indicated concentration of CSF1 for 48 h. Data are presented as mean ± SEM from three independent experiments. b–d Schematics of the experiments (b). A2780 cells (pre-treated with DMSO or 100 nM NHWD-870 for 48 h) were seeded into the top chamber (transwell size: 0.4 μm), and TAMs (Mac, 40,000 cells per 24-well) in medium with PBS or 10 ng/ml CSF1 (c), or 50 ng/ml IgG or anti-CSF1R antibodies (d), were seeded into the bottom chamber. Shown are quantification of TAMs (c, d). Data are presented as mean ± SEM from three independent experiments. e Representative western blot analysis of A2780 cells stably transfected with CSF1 or empty vector (EV). Selected from three independent experiments. f Schematics of the animal experiments using an orthotopic mouse OC model, established by intraperitoneally injecting 1 × 10^6 (g–j) or 2 × 10^6 (k–m) human A2780 cells overexpressing CSF1 or control into female recipient nude mice. Mice were then treated with/without liposomal clodronate (LC) for 45 days (g–j) or treated with/without NHWD-870 (PO, QD, 3 mg/kg) for 37 days (k–m). g Increased mouse body weight was measured at the indicated time points (day 0-45 after LC treatment). h–j Net tumor weight (h), ascitic fluid volumes (i) tumor implantations in peritoneum, omentum and pevic cavity (j) were measured at day 45 from LC treatment. k–m Net tumor weight (k), ascitic fluid volumes (l) tumor implantations in peritoneum, omentum and pevic cavity (m) were measured at day 37 after NHWD-870 treatment. For g–m, data are presented as mean ± SEM from five different mice. p values were calculated using two-tailed, unpaired t tests in this figure. n.s, not significant; *p < 0.05; **p < 0.01; and ***p < 0.001. Source data are provided as a Source Data file.
# CD45^+CD11b^+F4/80^+ TAMs were isolated from peritoneal metastasis of A2780 tumor-bearing mice and cultured in RPMI-1640 supplemented with 10% FBS, 1% penicillin/streptomycin, and 0–50 ng/ml CSF1 (R&D Systems) as indicated according to standard protocols. In the cancer cell-macrophage co-culture experiments, CSF1 was not added. In the transwell (Corning, pore size, 0.4 μm) co-culture experiments, tumor cells were placed into the upper chamber, and TAMs were seeded into the lower chamber.
molecule,measurement,setting,value
Cc1nnn(C)c1-c1cnc2c3c4cnn(C)c4ccc3n([C@H](c3ccccc3)C3CCOCC3)c2c1.Cl [870-HCI],Tumor volume,[1]; day 0,0
same,Tumor volume,[1]; day 3,76 and 83 and 79 and 110 and 130
same,Tumor volume,[1]; day 7,143 and 132 and 174 and 201 and 230
same,Tumor volume,[1]; day 11,195 and 185 and 250 and 289 and 310
same,Tumor volume,[1]; day 15,264 and 276 and 364 and 396 and 423
same,Tumor volume,[1]; day 19,349 and 303 and 474 and 530 and 503
same,Tumor volume,[1]; day 21,425 and 403 and 503 and 684 and 603
Cc1sc2c(c1C)C(c1ccc(Cl)cc1)=N[C@@H](CC(=O)Nc1ccc(O)cc1)c1nnc(C)n1-2 [OTX-015],"Cellular activity in melanoma cells (A375), alamarBlue",A375 melanoma cells; concentration(nM) 0.21442,0.2687 and 0.138
same,"Cellular activity in melanoma cells (A375), alamarBlue",A375 melanoma cells; concentration(nM) 0.31236,1.399 and 1.862
same,"Cellular activity in melanoma cells (A375), alamarBlue",A375 melanoma cells; concentration(nM) 0.4103,3 and 0.4387
same,"Cellular activity in melanoma cells (A375), alamarBlue",A375 melanoma cells; concentration(nM) 0.6032,12.3903 and 10.5044
same,"Cellular activity in melanoma cells (A375), alamarBlue",A375 melanoma cells; concentration(nM) 1.2043,24.9941 and 17.1565
same,"Cellular activity in melanoma cells (A375), alamarBlue",A375 melanoma cells; concentration(nM) 1.8024,69.0356 and 72.751
same,"Cellular activity in melanoma cells (A375), alamarBlue",A375 melanoma cells; concentration(nM) 2.4,91.1738 and 98.6047
same,"Cellular activity in melanoma cells (A375), alamarBlue",A375 melanoma cells; concentration(nM) 3,100.838 and 100.296
same,IC50,"A375 melanoma cells; Homo sapiens, A-375, nM printed in b8, the picture prints no unit, read-out: IC50, cellular activity in A375 (alamarBlue)",34.8 nM
same,HIF1 reporter activity,HIF1 reporter activity,significantly decreased HIF1 reporter activity
B1,Number of TAMs (Fig.6c),TAMs; time 0,5
same,Number of TAMs (Fig.6c),TAMs; time 24,6.1 and 7 and 6.4
same,Number of TAMs (Fig.6c),TAMs; time 48,18.4 and 16.8 and 17.9
same,Number of TAMs (Fig.6c),TAMs; time 72,34.1 and 29.5 and 32.5
